Laboratory results reported in US8192962B2, “Processes for detecting toxic substances” (Daikin Industries, Ltd., priority 2001, dated 2012).

Test system: Energy system protein genes
Test: DNA chip mRNA expression in yeast, energy system protein genes (Table 4)
Assay type: cell-based, Saccharomyces cerevisiae S288C
Procedure: Yeast (Saccharomyces cerevisiae S288C (α SUC2mal mel gap2 CUP1)) were incubated at 25° C. on YPD medium (yeast extract 1%, polypepton 2%, glucose 2%). One of toxic chemical substances was added to the cells at logarithmic growth phase, and the cells were further incubated for two hours. Cells were cultured without any chemical substance in the same condition, and were used as control. Concentrations of the chemical substances were defined to inhibit the growth of the yeast but not lead to death.
After completion of the incubation, the culture was centrifuged to collect the cells. To the cells, sodium acetate buffer (50 mM sodium acetate, 10 mM EDTA, 1% SDS) was added, and the mixture was shaken at 65° C. for five minutes, followed by returning to room temperature, and obtaining the supernatant, of which the procedures were repeated two times. To the supernatant, ½ amount of a solution of phenol/chloroform was added, and the mixture was centrifuged to give a supernatant, which was added with an equal amount of chloroform, and the mixture was centrifuged to give a supernatant. To the supernatant, an equal amount of isopropanol containing 0.3 M sodium acetate was added, and the mixture was allowed to stand at room temperature for 30 minutes, after which the mixture was centrifuged to give a sediment of the whole RNAs. Seventy % ethanol was added to the sediment, and the mixture was again centrifuged to give a sediment, which was then dried and dissolved in water. mRNA was isolated from the whole RNAs as followings. In view of the fact that a poly A chain is attached to the 3′ terminus of mRNA, a polynucleotide having a poly T structure which was immobilized on the surface of latex beads was used to trap the mRNA, and then the mRNA was washed and eluted with spine column (Oligotex-dT30<Super>mRNA Purification Kit, Takara). Reverse transcription of the mRNA was conducted with a reverse transcriptase (Super Script II Reverse Transcriptase; catalogue No. 18064-014, GibcoBRL) using fluorescence-labeled nucleotides to give cDNAs that were introduced with Cy3-dUTP or Cy5-dUTP during the reverse transcription.
The labeled cDNAs were dissolved in TE buffer (10mM Tris-HCl/1 mM EDTA, pH8.0), and the solution was dropped on the DNA chip containing the whole genes of yeast (DNA Chip Research Inc. Japan) so that the cDNAs were hybridized on the DNA chip at 65° C. for over 12 hours. The fluoresces intensity of the DNA chip was read with a scanner, and the ratio relative to the fluorescence intensity resulting from the absence of chemical substance was estimated as the following, which is shown in Tables 1 to 9: […]

CCCCCCCCCCCCc1ccc(S(=O)(=O)[O-])cc1.[Na+] [(17), sodium dodecylbenzosulfonate]
The level of expressed mRNA in the presence of chemical substance/The level of expressed mRNA in the absence of chemical substance (yeast gene YJR048W): 1.2
The level of expressed mRNA in the presence of chemical substance/The level of expressed mRNA in the absence of chemical substance (yeast gene YJR121W, cells incubated two hours with the chemical substance): 1.1
The level of expressed mRNA in the presence of chemical substance/The level of expressed mRNA in the absence of chemical substance (yeast gene YJR155W): 1.3
The level of expressed mRNA in the presence of chemical substance/The level of expressed mRNA in the absence of chemical substance (yeast gene YKL016C, cells incubated two hours with the chemical substance): 1.0
The level of expressed mRNA in the presence of chemical substance/The level of expressed mRNA in the absence of chemical substance (yeast gene YKL060C, cells incubated two hours with the chemical substance): 1.2
The level of expressed mRNA in the presence of chemical substance/The level of expressed mRNA in the absence of chemical substance (yeast gene YKL141W, cells incubated two hours with the chemical substance): 0.9
The level of expressed mRNA in the presence of chemical substance/The level of expressed mRNA in the absence of chemical substance (yeast gene YKL148C, cells incubated two hours with the chemical substance): 0.8
The level of expressed mRNA in the presence of chemical substance/The level of expressed mRNA in the absence of chemical substance (yeast gene YKR009C, cells incubated two hours with the chemical substance): 1.9
The level of expressed mRNA in the presence of chemical substance/The level of expressed mRNA in the absence of chemical substance (yeast gene YKR058W, cells incubated two hours with the chemical substance, 25° C., YPD medium): 0.8
The level of expressed mRNA in the presence of chemical substance/The level of expressed mRNA in the absence of chemical substance (yeast gene YKR097W): 1.1
The level of expressed mRNA in the presence of chemical substance/The level of expressed mRNA in the absence of chemical substance (yeast gene YLL041C, cells incubated two hours with the chemical substance): 1.1
The level of expressed mRNA in the presence of chemical substance/The level of expressed mRNA in the absence of chemical substance (yeast gene YLR038C, cells incubated two hours with the chemical substance): 1.2
The level of expressed mRNA in the presence of chemical substance/The level of expressed mRNA in the absence of chemical substance (yeast gene YLR044C, cells incubated two hours with the chemical substance): 0.9
The level of expressed mRNA in the presence of chemical substance/The level of expressed mRNA in the absence of chemical substance (yeast gene YLR134W, cells incubated two hours with the chemical substance): 0.6
The level of expressed mRNA in the presence of chemical substance/The level of expressed mRNA in the absence of chemical substance (yeast gene YLR258W, cells incubated two hours with the chemical substance): 1.0
The level of expressed mRNA in the presence of chemical substance/The level of expressed mRNA in the absence of chemical substance (yeast gene YLR284C, cells incubated two hours with the chemical substance): 2.9
The level of expressed mRNA in the presence of chemical substance/The level of expressed mRNA in the absence of chemical substance (yeast gene YLR295C, cells incubated two hours with the chemical substance, 25° C., YPD medium): 0.9
The level of expressed mRNA in the presence of chemical substance/The level of expressed mRNA in the absence of chemical substance (yeast gene YLR304C, cells incubated two hours with the chemical substance): 0.5
The level of expressed mRNA in the presence of chemical substance/The level of expressed mRNA in the absence of chemical substance (yeast gene YLR345W): 1.2
The level of expressed mRNA in the presence of chemical substance/The level of expressed mRNA in the absence of chemical substance (yeast gene YLR354C, cells incubated two hours with the chemical substance): 1.0
The level of expressed mRNA in the presence of chemical substance/The level of expressed mRNA in the absence of chemical substance (yeast gene YLR377C, cells incubated two hours with the chemical substance): 0.9
The level of expressed mRNA in the presence of chemical substance/The level of expressed mRNA in the absence of chemical substance (yeast gene YLR395C, cells incubated two hours with the chemical substance): 1.2
The level of expressed mRNA in the presence of chemical substance/The level of expressed mRNA in the absence of chemical substance (yeast gene YML087C): 0.7
The level of expressed mRNA in the presence of chemical substance/The level of expressed mRNA in the absence of chemical substance (yeast gene YML120C, cells incubated two hours with the chemical substance): 1.0
The level of expressed mRNA in the presence of chemical substance/The level of expressed mRNA in the absence of chemical substance (yeast gene YML129C, cells incubated two hours with the chemical substance): 1.3
The level of expressed mRNA in the presence of chemical substance/The level of expressed mRNA in the absence of chemical substance (yeast gene YMR073C, cells incubated two hours with the chemical substance): 0.8
The level of expressed mRNA in the presence of chemical substance/The level of expressed mRNA in the absence of chemical substance (yeast gene YMR118C): 0.8
The level of expressed mRNA in the presence of chemical substance/The level of expressed mRNA in the absence of chemical substance (yeast gene YMR205C, cells incubated two hours with the chemical substance): 0.6
The level of expressed mRNA in the presence of chemical substance/The level of expressed mRNA in the absence of chemical substance (yeast gene YMR261C, cells incubated two hours with the chemical substance): 0.7
The level of expressed mRNA in the presence of chemical substance/The level of expressed mRNA in the absence of chemical substance (yeast gene YMR267W, cells incubated two hours with the chemical substance, 25° C., YPD medium): 0.9
The level of expressed mRNA in the presence of chemical substance/The level of expressed mRNA in the absence of chemical substance (yeast gene YMR323W, cells incubated two hours with the chemical substance): 1.1
The level of expressed mRNA in the presence of chemical substance/The level of expressed mRNA in the absence of chemical substance (yeast gene YNL071W): 1.0
The level of expressed mRNA in the presence of chemical substance/The level of expressed mRNA in the absence of chemical substance (yeast gene YNL202W, cells incubated two hours with the chemical substance): 2.4
The level of expressed mRNA in the presence of chemical substance/The level of expressed mRNA in the absence of chemical substance (yeast gene YNL241C): 1.0
The level of expressed mRNA in the presence of chemical substance/The level of expressed mRNA in the absence of chemical substance (yeast gene YNL331C): 1.7
The level of expressed mRNA in the presence of chemical substance/The level of expressed mRNA in the absence of chemical substance (yeast gene YOL086C, cells incubated two hours with the chemical substance): 1.1
The level of expressed mRNA in the presence of chemical substance/The level of expressed mRNA in the absence of chemical substance (yeast gene YOL165C): 1.6
The level of expressed mRNA in the presence of chemical substance/The level of expressed mRNA in the absence of chemical substance (yeast gene YOR142W, cells incubated two hours with the chemical substance): 0.9
The level of expressed mRNA in the presence of chemical substance/The level of expressed mRNA in the absence of chemical substance (yeast gene YOR178C, cells incubated two hours with the chemical substance): 1.0
The level of expressed mRNA in the presence of chemical substance/The level of expressed mRNA in the absence of chemical substance (yeast gene YOR388C, cells incubated two hours with the chemical substance): 1.0
The level of expressed mRNA in the presence of chemical substance/The level of expressed mRNA in the absence of chemical substance (yeast gene YPL031C, cells incubated two hours with the chemical substance): 1.4
The level of expressed mRNA in the presence of chemical substance/The level of expressed mRNA in the absence of chemical substance (yeast gene YPL061W, cells incubated two hours with the chemical substance): 1.6
The level of expressed mRNA in the presence of chemical substance/The level of expressed mRNA in the absence of chemical substance (yeast gene YPL088W): 9.1
The level of expressed mRNA in the presence of chemical substance/The level of expressed mRNA in the absence of chemical substance (yeast gene YPL171C): 2.4
The level of expressed mRNA in the presence of chemical substance/The level of expressed mRNA in the absence of chemical substance (yeast gene YPL240C): 0.8
The level of expressed mRNA in the presence of chemical substance/The level of expressed mRNA in the absence of chemical substance (yeast gene YPL262W, cells incubated two hours with the chemical substance): 1.1
The level of expressed mRNA in the presence of chemical substance/The level of expressed mRNA in the absence of chemical substance (yeast gene YPL275W, cells incubated two hours with the chemical substance): 1.0
The level of expressed mRNA in the presence of chemical substance/The level of expressed mRNA in the absence of chemical substance (yeast gene YPL276W, cells incubated two hours with the chemical substance): 1.1
The level of expressed mRNA in the presence of chemical substance/The level of expressed mRNA in the absence of chemical substance (yeast gene YPR048W, cells incubated two hours with the chemical substance): 0.7
The level of expressed mRNA in the presence of chemical substance/The level of expressed mRNA in the absence of chemical substance (yeast gene YPR184W, cells incubated two hours with the chemical substance): 1.0
